Laboratory results taken from patent publication US12577206B2 (BRISTOL-MYERS SQUIBB COMPANY, priority 2020, dated 2026).

Assays:
human FPR2 = biological target: T1, human FPR2 (Homo sapiens, UniProt P25090); test: FPR2 cyclic adenosine monophosphate (cAMP) assay; assay type: cell-based; conditions: CHO cells overexpressing human FPR2; forskolin 5 μM; inhibition of cAMP production; HTRF; read-out: hFPR2 cAMP2 EC50
T1 sequence (P25090 1-351): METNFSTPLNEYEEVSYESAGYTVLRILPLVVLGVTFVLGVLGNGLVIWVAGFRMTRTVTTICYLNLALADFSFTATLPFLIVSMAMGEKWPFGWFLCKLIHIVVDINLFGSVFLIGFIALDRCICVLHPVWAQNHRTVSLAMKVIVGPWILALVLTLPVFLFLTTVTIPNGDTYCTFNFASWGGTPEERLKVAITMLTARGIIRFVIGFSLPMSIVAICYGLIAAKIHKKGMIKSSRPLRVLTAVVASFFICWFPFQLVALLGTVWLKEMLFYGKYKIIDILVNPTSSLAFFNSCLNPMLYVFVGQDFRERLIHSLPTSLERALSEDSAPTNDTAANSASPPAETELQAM
Summary of the method: (§1)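 CHO/hFPR1 4,000 cells/well, forskolin 10 μM final; CHO/hFPR2 2,000 cells/well, forskolin 5 μM final. IBMX 200 μM, DMSO 1%, DPBS + Ca/Mg + 0.1% BSA, 30 min rt. HTRF cAMP; 4-PL fit.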

human FPR1 = biological target: T2, human FPR1 (Homo sapiens, UniProt P21462); test: FPR1 cyclic adenosine monophosphate (cAMP) assay; assay type: cell-based; conditions: CHO cells overexpressing human FPR1; forskolin 10 μM; inhibition of cAMP production; HTRF; read-out: hFPR1 cAMP2 EC50
T2 sequence (P21462 1-350): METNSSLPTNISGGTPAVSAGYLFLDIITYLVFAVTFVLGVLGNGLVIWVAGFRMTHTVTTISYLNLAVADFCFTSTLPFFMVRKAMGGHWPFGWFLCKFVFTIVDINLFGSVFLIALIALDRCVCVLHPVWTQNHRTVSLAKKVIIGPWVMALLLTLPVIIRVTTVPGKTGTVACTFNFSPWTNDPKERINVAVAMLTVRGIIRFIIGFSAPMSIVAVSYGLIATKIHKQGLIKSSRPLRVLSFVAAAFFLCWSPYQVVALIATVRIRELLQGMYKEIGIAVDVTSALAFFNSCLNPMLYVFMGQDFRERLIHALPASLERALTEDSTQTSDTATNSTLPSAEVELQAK
Summary of the method: as §1

Row | SMILES | EC50 (human FPR2) | EC50 (human FPR1)
1 | COc1cc(F)c(-c2c(NC(=O)c3ccc(OC(F)F)cc3)c(=O)n(-c3cc(OC)c(C)cn3)n2C)c(F)c1 [Example 77, N-[5-(2,6-difluoro-4-methoxyphenyl)-2-(4-methoxy-5-methylpyridin-2-yl)-1-methyl-3-oxo-2,3-dihydro-1H-pyrazol-4-yl]-4-(difluoromethoxy)benzamide] | 17 nM | 620 nM
2 | COc1cc(F)c(-c2c(NC(=O)c3ccc(Cl)cc3)c(=O)n(-c3ccc(Cl)cc3)n2C)c(F)c1 [Example 36, 4-chloro-N-[2-(4-chlorophenyl)-5-(2,6-difluoro-4-methoxyphenyl)-1-methyl-3-oxo-2,3-dihydro-1H-pyrazol-4-yl]benzamide] | 9 nM | 270 nM
3 | COc1cc(F)c(-c2c(NC(=O)c3ccc(OC(F)F)cc3)c(=O)n(-c3ccc(C4CC4)cn3)n2C)c(F)c1 [Example 47, N-[2-(5-cyclopropylpyridin-2-yl)-5-(2,6-difluoro-4-methoxyphenyl)-1-methyl-3-oxo-2,3-dihydro-1H-pyrazol-4-yl]-4-(difluoromethoxy)benzamide] | 6 nM | 460 nM
4 | COc1cc(F)c(-c2c(NC(=O)c3ccc(OC(F)F)cc3)c(=O)n(-c3nc(N4CCN(C)CC4)ccc3Cl)n2C)c(F)c1 [Example 143, N-{2-[3-chloro-6-(4-methylpiperazin-1-yl)pyridin-2-yl]-5-(2,6-difluoro-4-methoxyphenyl)-1-methyl-3-oxo-2,3-dihydro-1H-pyrazol-4-yl}-4-(difluoromethoxy)benzamide] | 10 nM | 3700 nM
5 | COc1cc(F)c(-c2c(NC(=O)c3ccc(OC(F)F)cc3)c(=O)n(-c3nc(N4CC(O)C4)ccc3Cl)n2C)c(F)c1 [Example 300, N-{2-[3-chloro-6-(3-hydroxyazetidin-1-yl)pyridin-2-yl]-5-(2,6-difluoro-4-methoxyphenyl)-1-methyl-3-oxo-2,3-dihydro-1H-pyrazol-4-yl}-4-(difluoromethoxy)benzamide] | 7 nM | > 5000 nM
6 | COc1cc(F)c(-c2c(NC(=O)c3ccc(OC(F)F)cc3)c(=O)n(C3CC3)n2C)c(F)c1 [Example 13, N-[2-cyclopropyl-5-(2,6-difluoro-4-methoxyphenyl)-1-methyl-3-oxo-2,3-dihydro-1H-pyrazol-4-yl]-4-(difluoromethoxy)benzamide] | 22 nM | 2400 nM
7 | COc1cc(F)c(-c2c(NC(=O)c3ccc(OC(F)F)cc3)c(=O)n(-c3cc(Cl)cc(N4C[C@H]5C[C@@H]4CN5)c3)n2C)c(F)c1 [Example 149, N-(2-{3-chloro-5-[(1R,4R)-2,5-diazabicyclo[2.2.1]heptan-2-yl]phenyl}-5-(2,6-difluoro-4-methoxyphenyl)-1-methyl-3-oxo-2,3-dihydro-1H-pyrazol-4-yl)-4-(difluoromethoxy)benzamide] | 6 nM | 4700 nM
8 | COc1cc(O)c(-c2c(NC(=O)c3ccc(OC(F)F)cc3)c(=O)n(-c3nc(Cl)ccc3Cl)n2C)c(F)c1 [Example 296, N-[2-(3,6-dichloropyridin-2-yl)-5-(2-fluoro-6-hydroxy-4-methoxyphenyl)-1-methyl-3-oxo-2,3-dihydro-1H-pyrazol-4-yl]-4-(difluoromethoxy)benzamide] | 33 nM | > 10000 nM
9 | COc1cc(F)c(-c2c(NC(=O)c3ccc(OC(F)F)cc3)c(=O)n(-c3cc(C(F)(F)F)ccn3)n2C)c(F)c1 [Example 62, N-[5-(2,6-difluoro-4-methoxyphenyl)-1-methyl-3-oxo-2-[4-(trifluoromethyl)pyridin-2-yl]-2,3-dihydro-1H-pyrazol-4-yl]-4-(difluoromethoxy)benzamide] | 6 nM | > 10000 nM
10 | CCOc1cccc(-n2c(=O)c(NC(=O)c3ccc(OC(F)F)cc3)c(-c3c(F)cc(OC)cc3F)n2C)c1 [Example 118, N-[5-(2,6-difluoro-4-methoxyphenyl)-2-(3-ethoxyphenyl)-1-methyl-3-oxo-2,3-dihydro-1H-pyrazol-4-yl]-4-(difluoromethoxy)benzamide] | 6 nM | 3 nM
11 | COc1cc(F)c(-c2c(NC(=O)c3ccc(OC(F)(F)F)cc3)c(=O)n(-c3ncccc3C#N)n2C)c(F)c1 [Example 56, N-[2-(3-cyanopyridin-2-yl)-5-(2,6-difluoro-4-methoxyphenyl)-1-methyl-3-oxo-2,3-dihydro-1H-pyrazol-4-yl]-4-(trifluoromethoxy)benzamide] | 7 nM | > 10000 nM

These reach a lower EC50 (human FPR2). Values come first.

Row | EC50 (human FPR2) | EC50 (human FPR1) | SMILES
12 | 3 nM | > 10000 nM | COc1cc(OCCO)nc(-n2c(=O)c(NC(=O)c3ccc(OC(F)F)cc3)c(-c3c(F)cc(OC)cc3F)n2C)c1 [Example 332, N-(5-(2,6-Difluoro-4-methoxyphenyl)-2-(6-(2-hydroxyethoxy)-4-methoxypyridin-2-yl)-1-methyl-3-oxo-2,3-dihydro-1H-pyrazol-4-yl)-4-(difluoromethoxy)benzamide]
13 | 3 nM | > 10000 nM | COc1cc(F)c(-c2c(NC(=O)c3ccc(OC(F)F)cc3)c(=O)n(-c3nc(C(F)(F)F)ccc3N(C)CCO)n2C)c(F)c1 [Example 375, N-(5-(2,6-Difluoro-4-methoxyphenyl)-2-(3-((2-hydroxyethyl)(methyl)amino)-6-(trifluoromethyl)pyridin-2-yl)-1-methyl-3-oxo-2,3-dihydro-1H-pyrazol-4-yl)-4-(difluoromethoxy)benzamide]
14 | 5 nM | > 10000 nM | COc1cc(F)c(-c2c(NC(=O)c3ccc(OC(F)F)cc3)c(=O)n(-c3nc(NC4COC4)ccc3C(F)(F)F)n2C)c(F)c1 [Example 253, N-[5-(2,6-difluoro-4-methoxyphenyl)-1-methyl-2-{6-[(oxetan-3-yl)amino]-3-(trifluoromethyl)pyridin-2-yl}-3-oxo-2,3-dihydro-1H-pyrazol-4-yl]-4-(difluoromethoxy)benzamide]
15 | 2 nM | > 5000 nM | COc1cc(F)c(-c2c(NC(=O)c3ccc(OC(F)F)cc3)c(=O)n(-c3nc(NCC4CC4)ccc3C(F)(F)F)n2C)c(F)c1 [Example 264, N-(2-{6-[(cyclopropylmethyl)amino]-3-(trifluoromethyl)pyridin-2-yl}-5-(2,6-difluoro-4-methoxyphenyl)-1-methyl-3-oxo-2,3-dihydro-1H-pyrazol-4-yl)-4-(difluoromethoxy)benzamide]
16 | 3 nM | 6200 nM | COc1cc(F)c(-c2c(NC(=O)c3ccc(OC(F)F)cc3)c(=O)n(-c3cccc(N4CC(F)(F)C4)n3)n2C)c(F)c1 [Example 104, N-[5-(2,6-difluoro-4-methoxyphenyl)-2-[6-(3,3-difluoroazetidin-1-yl)pyridin-2-yl]-1-methyl-3-oxo-2,3-dihydro-1H-pyrazol-4-yl]-4-(difluoromethoxy)benzamide]
17 | 2 nM | > 10000 nM | COc1cc(F)c(-c2c(NC(=O)c3ccc(OC(F)F)cc3)c(=O)n(-c3nc(N(C)S(C)(=O)=O)ccc3C(F)(F)F)n2C)c(F)c1 [Example 241, N-[5-(2,6-difluoro-4-methoxyphenyl)-1-methyl-2-[6-(N-methylmethanesulfonamido)-3-(trifluoromethyl)pyridin-2-yl]-3-oxo-2,3-dihydro-1H-pyrazol-4-yl]-4-(difluoromethoxy)benzamide]
18 | 3 nM | 550 nM | CCOC(=O)c1cc(F)cc(-n2c(=O)c(NC(=O)c3ccc(OC(F)F)cc3)c(-c3c(F)cc(OC)cc3F)n2C)c1 [Example 133, ethyl 3-[3-(2,6-difluoro-4-methoxyphenyl)-4-[4-(difluoromethoxy)benzamido]-2-methyl-5-oxo-2,5-dihydro-1H-pyrazol-1-yl]-5-fluorobenzoate]
19 | 2 nM | > 10000 nM | COc1cc(F)c(-c2c(NC(=O)c3ccc(OC(F)F)cc3)c(=O)n(-c3nc(C4CCN(S(C)(=O)=O)CC4)ccc3C(F)(F)F)n2C)c(F)c1 [Example 319]
20 | 5 nM | 82 nM | COc1cc(F)c(-c2c(NC(=O)c3ccc(OC(F)F)cc3)c(=O)n(-c3cccc(NC(=O)C(C)(C)C)n3)n2C)c(F)c1 [Example 84, N-[5-(2,6-difluoro-4-methoxyphenyl)-2-[6-(2,2-dimethylpropanamido)pyridin-2-yl]-1-methyl-3-oxo-2,3-dihydro-1H-pyrazol-4-yl]-4-(difluoromethoxy)benzamide]
21 | 2 nM | 1300 nM | COc1cc(F)c(-c2c(NC(=O)c3ccc(OC(F)F)cc3)c(=O)n(-c3nc(N4CCN(CC(F)F)CC4)ccc3Cl)n2C)c(F)c1 [Example 240, N-(2-{3-chloro-6-[4-(2,2-difluoroethyl)piperazin-1-yl]pyridin-2-yl}-5-(2,6-difluoro-4-methoxyphenyl)-1-methyl-3-oxo-2,3-dihydro-1H-pyrazol-4-yl)-4-(difluoromethoxy)benzamide]
